# Source: patent US8877819B2, “Methods for treating heat stress and related compositions” (Georgetown University, priority 2008, dated 2014)
# Target: T1, angiotensin converting enzyme (ACE) (Rattus norvegicus, UniProt P47820)
# T1 construct: from tissue; host or cells: rat serum
# T1 sequence (P47820 36-1313): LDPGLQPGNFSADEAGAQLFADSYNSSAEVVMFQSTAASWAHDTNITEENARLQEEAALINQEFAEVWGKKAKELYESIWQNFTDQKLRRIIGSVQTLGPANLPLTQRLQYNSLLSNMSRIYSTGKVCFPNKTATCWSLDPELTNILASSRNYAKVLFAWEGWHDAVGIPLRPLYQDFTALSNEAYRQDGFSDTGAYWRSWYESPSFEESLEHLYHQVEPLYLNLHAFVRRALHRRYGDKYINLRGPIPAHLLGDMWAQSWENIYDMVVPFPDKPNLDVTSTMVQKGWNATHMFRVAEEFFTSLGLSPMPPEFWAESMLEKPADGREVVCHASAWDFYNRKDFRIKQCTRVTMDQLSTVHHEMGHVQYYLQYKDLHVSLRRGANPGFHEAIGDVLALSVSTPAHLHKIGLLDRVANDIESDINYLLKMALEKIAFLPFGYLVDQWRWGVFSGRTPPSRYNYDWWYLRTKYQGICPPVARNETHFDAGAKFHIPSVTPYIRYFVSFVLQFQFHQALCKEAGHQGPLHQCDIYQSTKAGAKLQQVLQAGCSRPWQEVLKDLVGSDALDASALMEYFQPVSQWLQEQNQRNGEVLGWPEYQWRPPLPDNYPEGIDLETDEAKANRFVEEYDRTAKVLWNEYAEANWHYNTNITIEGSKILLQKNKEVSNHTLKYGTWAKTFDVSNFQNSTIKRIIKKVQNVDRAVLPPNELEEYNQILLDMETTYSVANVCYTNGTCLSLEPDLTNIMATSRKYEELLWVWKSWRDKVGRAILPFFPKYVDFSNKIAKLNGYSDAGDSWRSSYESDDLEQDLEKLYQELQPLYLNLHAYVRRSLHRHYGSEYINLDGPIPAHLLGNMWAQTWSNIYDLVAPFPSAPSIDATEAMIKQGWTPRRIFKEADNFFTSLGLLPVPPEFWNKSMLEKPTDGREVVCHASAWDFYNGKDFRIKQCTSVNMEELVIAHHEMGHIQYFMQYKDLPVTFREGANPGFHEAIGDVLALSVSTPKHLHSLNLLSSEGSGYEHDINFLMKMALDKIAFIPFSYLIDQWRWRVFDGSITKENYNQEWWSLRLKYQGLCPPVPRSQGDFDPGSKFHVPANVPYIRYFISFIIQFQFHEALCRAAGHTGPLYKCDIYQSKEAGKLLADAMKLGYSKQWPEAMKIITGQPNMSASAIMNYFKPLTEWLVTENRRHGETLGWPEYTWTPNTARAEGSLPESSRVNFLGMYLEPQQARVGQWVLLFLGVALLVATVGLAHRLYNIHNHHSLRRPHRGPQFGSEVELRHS
# Assay: Serum Angiotensin Converting Enzyme (ACE) activity
# Format: in vivo, Zucker Fatty Rats
# Procedure: Serum ACE activity was measured by a commercial kit (Sigma Co. Ltd, St. Louis, Mo.). This spectrophotometric method utilizes the synthetic tripeptide substrate N-[3-(2-furyl)acryloyl]-phenylalanylglcylglcine (FAPGG). FAPGG is hydrolyzed by ACE to furylacryloylphenylalanine (FAP) and glycylglycine. Hydrolysis of FAPGG results in a decreased absorbency at 340 nm. Serum ACE activity was determined by comparing the sample reaction rate to that obtained with an appropriate ACE calibrator.
smiles,measurement,setting,value
"CC1=C(/C=C/C(C)=C/C=C/C(C)=C/C=C/C=C(C)/C=C/C=C(C)/C=C/C2=C(C)C(=O)[C@@H](O)CC2(C)C)C(C)(C)C[C@H](O)C1=O [Asta, astaxanthin]",ACE activity,"Experiment 2, Hi Asta, astaxanthin 25 mg/kg in feed",24.2 ± 1.3 units
same,ACE activity,"Experiment 2, Lo Asta, astaxanthin 5 mg/kg in feed",27.1 ± 1.4 units
